Assays:
[1] = target: Transcriptional enhancer factor TEF-4 (Homo sapiens, UniProt Q15562); assay: Displacement of biotinylated lipid pocket probes from His-tagged TEAD2 (unknown origin) preincubated for 4 hrs followed by lipid pocket probe addition and measured after 60 mins by TR-FRET assay
[2] = target: Transcriptional enhancer factor TEF-3 (Homo sapiens, UniProt Q15561); assay: Displacement of biotinylated lipid pocket probes from His-tagged TEAD4 (unknown origin) preincubated for 4 hrs followed by lipid pocket probe addition and measured after 60 mins by TR-FRET assay
Sequence of Transcriptional enhancer factor TEF-3 (Q15561 whole entry): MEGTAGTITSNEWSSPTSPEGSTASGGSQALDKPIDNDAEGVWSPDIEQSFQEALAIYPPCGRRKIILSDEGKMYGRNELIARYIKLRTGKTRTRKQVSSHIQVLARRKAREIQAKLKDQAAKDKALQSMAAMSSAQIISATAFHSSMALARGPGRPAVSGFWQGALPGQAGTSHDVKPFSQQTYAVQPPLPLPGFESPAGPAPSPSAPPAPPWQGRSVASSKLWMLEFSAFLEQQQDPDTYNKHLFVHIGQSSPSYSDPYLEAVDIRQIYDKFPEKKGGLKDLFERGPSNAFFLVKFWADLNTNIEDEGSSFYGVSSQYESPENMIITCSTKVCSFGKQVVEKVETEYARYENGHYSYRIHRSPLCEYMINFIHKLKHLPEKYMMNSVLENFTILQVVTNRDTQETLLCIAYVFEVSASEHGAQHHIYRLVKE

[3] = target: Transcriptional enhancer factor TEF-5 (Homo sapiens, UniProt Q99594); assay: Displacement of biotinylated lipid pocket probes from His-tagged TEAD3 (unknown origin) preincubated for 4 hrs followed by lipid pocket probe addition and measured after 60 mins by TR-FRET assay
Sequence of Transcriptional enhancer factor TEF-5 (Q99594 whole entry): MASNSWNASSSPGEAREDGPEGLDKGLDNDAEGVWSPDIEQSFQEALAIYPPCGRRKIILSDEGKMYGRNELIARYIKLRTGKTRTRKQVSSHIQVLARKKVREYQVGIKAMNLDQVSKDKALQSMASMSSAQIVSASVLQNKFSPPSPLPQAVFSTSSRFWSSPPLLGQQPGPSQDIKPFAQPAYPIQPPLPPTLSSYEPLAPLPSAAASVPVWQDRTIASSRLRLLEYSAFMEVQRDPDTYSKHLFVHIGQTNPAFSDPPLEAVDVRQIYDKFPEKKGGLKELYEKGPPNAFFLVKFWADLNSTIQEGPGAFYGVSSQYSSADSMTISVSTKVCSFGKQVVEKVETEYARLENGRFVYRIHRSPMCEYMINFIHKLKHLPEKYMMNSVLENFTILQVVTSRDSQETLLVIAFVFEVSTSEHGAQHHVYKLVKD

[4] = target: Transcriptional enhancer factor TEF-1 (Homo sapiens, UniProt P28347); assay: Displacement of biotinylated lipid pocket probes from His-tagged TEAD1 (unknown origin) preincubated for 4 hrs followed by lipid pocket probe addition and measured after 60 mins by TR-FRET assay
Sequence of Transcriptional enhancer factor TEF-1 (P28347 whole entry): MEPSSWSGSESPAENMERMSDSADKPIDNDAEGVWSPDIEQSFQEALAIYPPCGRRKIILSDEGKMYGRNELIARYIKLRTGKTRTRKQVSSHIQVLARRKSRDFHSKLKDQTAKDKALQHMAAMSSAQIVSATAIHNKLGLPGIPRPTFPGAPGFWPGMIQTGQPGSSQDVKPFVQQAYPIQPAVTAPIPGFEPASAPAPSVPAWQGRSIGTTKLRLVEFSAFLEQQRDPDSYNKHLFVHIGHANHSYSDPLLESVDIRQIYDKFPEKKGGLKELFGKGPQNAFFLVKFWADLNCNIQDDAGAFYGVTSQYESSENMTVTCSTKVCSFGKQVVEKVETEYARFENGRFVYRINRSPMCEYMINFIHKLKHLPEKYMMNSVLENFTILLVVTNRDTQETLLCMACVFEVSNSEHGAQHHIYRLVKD

Sequence of Transcriptional enhancer factor TEF-4 (Q15562 whole entry): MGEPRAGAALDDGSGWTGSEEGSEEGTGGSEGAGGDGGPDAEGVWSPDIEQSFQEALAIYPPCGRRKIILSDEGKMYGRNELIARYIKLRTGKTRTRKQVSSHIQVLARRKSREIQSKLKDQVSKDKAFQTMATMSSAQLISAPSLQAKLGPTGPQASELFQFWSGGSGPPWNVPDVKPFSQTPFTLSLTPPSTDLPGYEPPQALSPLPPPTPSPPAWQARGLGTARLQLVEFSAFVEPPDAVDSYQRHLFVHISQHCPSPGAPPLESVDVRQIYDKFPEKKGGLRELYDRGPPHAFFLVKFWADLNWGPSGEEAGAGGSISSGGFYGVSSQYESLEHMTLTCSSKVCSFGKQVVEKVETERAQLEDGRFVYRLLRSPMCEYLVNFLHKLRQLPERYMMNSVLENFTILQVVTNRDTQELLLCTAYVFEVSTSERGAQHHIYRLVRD

Structure (SMILES) | IC50 [1] [nM] | IC50 [2] [nM] | IC50 [3] [nM] | IC50 [4] [nM]
Cn1cnc2c(-c3ccc(OC(F)(F)F)cc3)nc(C3CN(C(=O)C4=CCC4)C3)nc21 | 4 | 2 | – | –
C=CC(=O)N(C)Cc1cc(-c2ccc(OC(F)(F)F)cc2)c2c(c1CO)CCO2 | 6 | 3 | 7 | 4
C=CC(=O)NCc1cc(-c2ccc(OC(F)(F)F)cc2)c2ncn(C)c2c1C#CCO | – | 3 | – | 6
C=CC(=O)N1CC(c2nc(-c3ccc(OC(F)(F)F)cc3)c3ncsc3n2)C1 | 4 | 2 | 3 | 3
